Assay results reported in BindingDB's records for doi:10.1210/endo.135.6.7988476 (Mcgill University, 1994).
Bridge positions count the residues as written; N and C are the ends. Square brackets hold non-standard residues; d marks the D form. Peptide text beside a SMILES is read from it. * marks the point of attachment. NH(1-naphthylmethyl) = c1ccc2c(CN*)cccc2c1

Columns and labels:
[1] = biological target: Somatostatin receptor type 3 (Homo sapiens, UniProt P32745)
[2] = biological target: Somatostatin receptor type 1 (Homo sapiens, UniProt P30872)
Chain of Somatostatin receptor type 1 (P30872 whole entry): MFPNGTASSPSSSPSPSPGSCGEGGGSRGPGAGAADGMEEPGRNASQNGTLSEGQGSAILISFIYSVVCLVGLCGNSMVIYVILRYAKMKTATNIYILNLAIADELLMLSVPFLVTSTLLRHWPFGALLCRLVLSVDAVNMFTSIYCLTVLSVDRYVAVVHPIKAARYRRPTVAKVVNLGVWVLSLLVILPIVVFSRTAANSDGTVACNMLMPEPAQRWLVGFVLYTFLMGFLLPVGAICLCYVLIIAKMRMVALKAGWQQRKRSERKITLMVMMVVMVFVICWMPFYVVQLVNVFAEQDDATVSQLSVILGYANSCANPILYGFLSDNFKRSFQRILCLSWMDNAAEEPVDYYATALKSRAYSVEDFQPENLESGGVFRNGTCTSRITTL

[3] = biological target: Somatostatin receptor type 2 (Homo sapiens, UniProt P30874)
Chain of Somatostatin receptor type 2 (P30874 whole entry): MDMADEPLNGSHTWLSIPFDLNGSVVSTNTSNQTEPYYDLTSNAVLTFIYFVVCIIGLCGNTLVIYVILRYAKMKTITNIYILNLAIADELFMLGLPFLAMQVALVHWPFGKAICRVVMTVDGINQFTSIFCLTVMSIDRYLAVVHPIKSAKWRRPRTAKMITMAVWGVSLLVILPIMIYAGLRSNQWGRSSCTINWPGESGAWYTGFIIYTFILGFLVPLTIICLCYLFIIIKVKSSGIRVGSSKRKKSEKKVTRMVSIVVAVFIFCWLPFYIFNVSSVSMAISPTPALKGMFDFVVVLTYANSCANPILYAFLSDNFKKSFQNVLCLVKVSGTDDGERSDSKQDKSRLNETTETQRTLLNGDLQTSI

[4] = biological target: Somatostatin receptor type 4 (Homo sapiens, UniProt P31391)
Chain of Somatostatin receptor type 4 (P31391 whole entry): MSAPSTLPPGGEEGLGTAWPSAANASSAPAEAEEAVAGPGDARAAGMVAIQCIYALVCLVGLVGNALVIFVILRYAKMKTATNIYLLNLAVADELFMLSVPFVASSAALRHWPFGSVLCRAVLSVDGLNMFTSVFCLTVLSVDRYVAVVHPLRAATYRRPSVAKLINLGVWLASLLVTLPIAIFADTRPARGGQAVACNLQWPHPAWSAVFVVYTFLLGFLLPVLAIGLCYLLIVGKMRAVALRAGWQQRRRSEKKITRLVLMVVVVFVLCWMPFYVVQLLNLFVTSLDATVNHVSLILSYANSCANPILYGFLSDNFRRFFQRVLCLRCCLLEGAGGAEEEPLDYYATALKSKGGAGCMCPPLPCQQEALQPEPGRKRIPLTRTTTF

Chain of Somatostatin receptor type 3 (P32745 whole entry): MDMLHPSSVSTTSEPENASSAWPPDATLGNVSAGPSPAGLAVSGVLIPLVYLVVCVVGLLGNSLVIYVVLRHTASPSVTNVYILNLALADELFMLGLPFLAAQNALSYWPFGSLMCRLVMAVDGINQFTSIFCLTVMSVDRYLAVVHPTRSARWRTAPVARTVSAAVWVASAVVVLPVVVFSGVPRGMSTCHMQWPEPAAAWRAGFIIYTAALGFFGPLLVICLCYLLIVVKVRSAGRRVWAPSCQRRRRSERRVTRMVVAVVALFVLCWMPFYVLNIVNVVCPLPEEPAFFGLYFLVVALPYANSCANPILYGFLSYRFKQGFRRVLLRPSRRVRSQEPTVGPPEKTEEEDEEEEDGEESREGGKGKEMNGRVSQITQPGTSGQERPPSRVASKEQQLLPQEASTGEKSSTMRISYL

Ki [1] [nM] | Ki [2] [nM] | Ki [3] [nM] | Ki [4] [nM] | SMILES
0.16 | 0.41 | 0.18 | 0.03 | CC(C)C[C@H](NC(=O)[C@H](C)NC(=O)[C@@H]1CCCN1C(=O)[C@H](CC(N)=O)NC(=O)[C@H](CO)NC(=O)[C@H](CC(N)=O)NC(=O)[C@H](C)NC(=O)[C@@H](N)CO)C(=O)N[C@@H](C)C(=O)N1CCC[C@H]1C(=O)N[C@@H](CCCN=C(N)N)C(=O)N[C@@H](CCC(=O)O)C(=O)N[C@@H](CCCN=C(N)N)C(=O)N[C@@H](CCCCN)C(=O)N[C@@H](C)C(=O)NCC(=O)N[C@H]1CSSC[C@@H](C(=O)O)NC(=O)[C@H](CO)NC(=O)[C@H]([C@@H](C)O)NC(=O)[C@H](Cc2ccc(O)cc2)NC(=O)[C@H]([C@@H](C)O)NC(=O)[C@H](CCCCN)NC(=O)[C@@H](Cc2c[nH]c3ccccc23)NC(=O)[C@H](Cc2ccccc2)NC(=O)[C@H](Cc2ccccc2)NC(=O)[C@H](CC(N)=O)NC(=O)[C@H](CCCCN)NC1=O [Leu8, D-Trp22, Tyr25 SST-28] (H-SANSNPALAPRERKAGCKNFF[dW]KTYTSC-OH; disulfide 17-28)
8.9 | 37.4 | 4.4 | 195 | NCCCCC1NC(=O)C(Cc2c[nH]c3ccccc23)NC(=O)C(Cc2ccc(O)cc2)NC(=O)C(NC(=O)C(N)Cc2ccccc2)CSSCC(C(=O)NCc2cccc3ccccc23)NC(=O)C(CO)NC1=O (stereo not drawn) [NC4-28B] (H-FCYWKSC-{NH(1-naphthylmethyl)}; disulfide 2-7; configuration not given here)
